# Laboratory results from patent US20200352991A1, “POLYMER FILMS WITH ANTIMICROBIAL AGENTS” (The Trustees of Columbia University in the City of New York, priority 2017, published 2020).
# Columns and labels:
# [1] = system: P. aeruginosa (ATCC 15442); assay: Zone of inhibition test of coated endotracheal tubes, modified Kirby-Bauer method; assay type: cell-based; conditions: coated endotracheal tube segments, 24 hours, ETT diameter (10 mm) is included
# Procedure: Efficacy of the coated tubes was evaluated by zone of inhibition test against P. aeruginosa (ATCC 15442) after 24 hours.
# Method: The anti-microbial efficacy of the coated endotracheal tube (ETT) was evaluated by zone of inhibition test against P. aeruginosa (ATCC 15442) according to the modified Kirby-Bauer method. Trypticase soy agar (TSA) plates were seeded with 0.3 mL of overnight grown bacterial culture diluted to 107 colony forming units (CFU) per mL.
# Antimicrobial coated ETTs were cut into 0.5 cm segments and embedded vertically into the agar plate. Uncoated ETT segments were used as control. After 24 hours of incubation at 37° C., the diameters of zones of inhibition around the ETT segments, including the diameters of the ETT, were measured.
# S. aureus = assay: Rapid kill test, 15 second time kill; assay type: cell-based; conditions: 100 ul of 104 S. aureus culture, 15 second time kill
SMILES,Zone of inhibition against P. aeruginosa [1],Log10 reduction (S. aureus)
"[H]/N=C(\N/C(=N/[H])NCCCCCCNC(=N)NC(=N)Nc1ccc(Cl)cc1)Nc1ccc(Cl)cc1 [Chlorhexidine (CHX, 0.3%), Chlorhexidine]",20 mm,4.51 Log10
"CC(=O)N[C@@H](CS)C(=O)O [N-acetyl cystein (NAC, 1%), N-acetyl cystein]",0 mm,0.34 Log10
